Experimental data taken from ChEMBL document CHEMBL6134788, “Development of naphthalimide hydrazide derivatives as potent antibacterial agents against carbapenem-resistant A. baumannii” (RSC Med Chem, 2024).
In brackets after ≈: the same amount, converted by molar mass.

Assays:
Assay type in all cases: functional
Details in all cases: time 16-18 hrs, read-out: MIC100
Staphylococcus aureus = assay: Antibacterial activity against Staphylococcus aureus ATCC 29213 assessed as inhibition of bacterial growth incubated for 16 to 18 hrs by CLSI protocol based method
Pseudomonas aeruginosa = assay: Antibacterial activity against Pseudomonas aeruginosa ATCC 27853 assessed as inhibition of bacterial growth incubated for 16 to 18 hrs by CLSI protocol based method
Klebsiella pneumoniae = assay: Antibacterial activity against Klebsiella pneumoniae BAA 1705 assessed as inhibition of bacterial growth incubated for 16 to 18 hrs by CLSI protocol based method
Acinetobacter baumannii = assay: Antibacterial activity against carbapenem-resistant Acinetobacter baumannii BAA 1605 assessed as inhibition of bacterial growth incubated for 16 to 18 hrs by CLSI protocol based method
Escherichia coli = assay: Antibacterial activity against Escherichia coli ATCC 25922 assessed as inhibition of bacterial growth incubated for 16 to 18 hrs by CLSI protocol based method

Compound: O=C(CCN1C(=O)c2cccc3c(Br)ccc(c23)C1=O)NNc1ccc(Br)cc1
- MIC (Staphylococcus aureus): > 64 mg/L
- MIC (Pseudomonas aeruginosa): > 64 mg/L
- MIC (Klebsiella pneumoniae): > 64 mg/L
- MIC (Acinetobacter baumannii): 4 mg/L (≈ 7.73 µM)
- MIC (Escherichia coli): > 64 mg/L

Compound: N#Cc1ccc(NNC(=O)CN2C(=O)c3cccc4cccc(c34)C2=O)cc1
- MIC (Staphylococcus aureus): > 64 mg/L
- MIC (Pseudomonas aeruginosa): > 64 mg/L
- MIC (Klebsiella pneumoniae): > 64 mg/L
- MIC (Acinetobacter baumannii): 4 mg/L (≈ 10.8 µM)
- MIC (Escherichia coli): > 64 mg/L

Compound: O=C(NNc1ccccc1)[C@@H](Cc1ccccc1)N1C(=O)c2cccc3cccc(c23)C1=O
- MIC (Staphylococcus aureus): > 64 mg/L
- MIC (Pseudomonas aeruginosa): > 64 mg/L
- MIC (Klebsiella pneumoniae): > 64 mg/L
- MIC (Acinetobacter baumannii): 8 mg/L (≈ 18.4 µM)
- MIC (Escherichia coli): > 64 mg/L

Compound: O=C(CCCCCN1C(=O)c2cccc3cccc(c23)C1=O)NNc1ccccc1
- MIC (Staphylococcus aureus): > 64 mg/L
- MIC (Pseudomonas aeruginosa): > 64 mg/L
- MIC (Klebsiella pneumoniae): > 64 mg/L
- MIC (Acinetobacter baumannii): 8 mg/L (≈ 19.9 µM)
- MIC (Escherichia coli): > 64 mg/L

Compound: O=C(NNc1ccc(Br)cc1)[C@@H](Cc1ccccc1)N1C(=O)c2cccc3cccc(c23)C1=O
- MIC (Staphylococcus aureus): > 64 mg/L
- MIC (Pseudomonas aeruginosa): > 64 mg/L
- MIC (Klebsiella pneumoniae): > 64 mg/L
- MIC (Acinetobacter baumannii): 8 mg/L (≈ 15.6 µM)
- MIC (Escherichia coli): > 64 mg/L

Compound: COc1ccc(NNC(=O)CCN2C(=O)c3cccc4cccc(c34)C2=O)cc1
- MIC (Staphylococcus aureus): > 64 mg/L
- MIC (Pseudomonas aeruginosa): > 64 mg/L
- MIC (Klebsiella pneumoniae): > 64 mg/L
- MIC (Acinetobacter baumannii): 4 mg/L (≈ 10.3 µM)
- MIC (Escherichia coli): > 64 mg/L

Compound: NCC[C@H](O)C(=O)N[C@@H]1C[C@H](N)[C@@H](O[C@H]2O[C@H](CN)[C@@H](O)[C@H](O)[C@H]2O)[C@H](O)[C@H]1O[C@H]1O[C@H](CO)[C@@H](O)[C@H](N)[C@H]1O [AMIKACIN]
- MIC (Acinetobacter baumannii): 4 mg/L (≈ 6.83 µM)

Compound: N#Cc1ccc(NNC(=O)[C@@H](Cc2ccccc2)N2C(=O)c3cccc4cccc(c34)C2=O)cc1
- MIC (Staphylococcus aureus): > 64 mg/L
- MIC (Pseudomonas aeruginosa): > 64 mg/L
- MIC (Klebsiella pneumoniae): > 64 mg/L
- MIC (Acinetobacter baumannii): 16 mg/L (≈ 34.7 µM)
- MIC (Escherichia coli): > 64 mg/L

Compound: O=C(CCN1C(=O)c2cccc3cccc(c23)C1=O)NNc1ccccc1Cl
- MIC (Staphylococcus aureus): > 64 mg/L
- MIC (Pseudomonas aeruginosa): > 64 mg/L
- MIC (Klebsiella pneumoniae): > 64 mg/L
- MIC (Acinetobacter baumannii): > 64 mg/L
- MIC (Escherichia coli): > 64 mg/L

Compound: O=C(CCN1C(=O)c2cccc3cccc(c23)C1=O)NNc1ccc([N+](=O)[O-])cc1
- MIC (Staphylococcus aureus): > 64 mg/L
- MIC (Pseudomonas aeruginosa): > 64 mg/L
- MIC (Klebsiella pneumoniae): > 64 mg/L
- MIC (Acinetobacter baumannii): 4 mg/L (≈ 9.89 µM)
- MIC (Escherichia coli): > 64 mg/L

Compound: N#Cc1ccc(NNC(=O)CCCCCN2C(=O)c3cccc4cccc(c34)C2=O)cc1
- MIC (Staphylococcus aureus): > 64 mg/L
- MIC (Pseudomonas aeruginosa): > 64 mg/L
- MIC (Klebsiella pneumoniae): > 64 mg/L
- MIC (Acinetobacter baumannii): > 64 mg/L
- MIC (Escherichia coli): > 64 mg/L

Compound: O=C(CCN1C(=O)c2cccc3cccc(c23)C1=O)NNc1ccccc1Br
- MIC (Staphylococcus aureus): > 64 mg/L
- MIC (Pseudomonas aeruginosa): > 64 mg/L
- MIC (Klebsiella pneumoniae): > 64 mg/L
- MIC (Acinetobacter baumannii): > 64 mg/L
- MIC (Escherichia coli): > 64 mg/L

Compound: O=C(CCN1C(=O)c2cccc3cccc(c23)C1=O)NNc1cccc(F)c1
- MIC (Staphylococcus aureus): > 64 mg/L
- MIC (Pseudomonas aeruginosa): > 64 mg/L
- MIC (Klebsiella pneumoniae): > 64 mg/L
- MIC (Acinetobacter baumannii): 1 mg/L (≈ 2.65 µM)
- MIC (Escherichia coli): > 64 mg/L

Compound: CO[C@H]1/C=C/O[C@@]2(C)Oc3c(C)c(O)c4c(O)c(c(/C=N/N5CCN(C)CC5)c(O)c4c3C2=O)NC(=O)/C(C)=C\C=C\[C@H](C)[C@H](O)[C@@H](C)[C@@H](O)[C@@H](C)[C@H](OC(C)=O)[C@@H]1C [RIFAMPIN]
- MIC (Acinetobacter baumannii): 4 mg/L (≈ 4.86 µM)
